EC50, CC50 and melting point data for eight compounds are collected here from patent US20070275953A1 (priority 2003, published 2007).

Series [1] concerns HIV-1 with WT (wild type) RT in P4 cells. To be noted: published values; read-out: Nevirapine activity, published values; cited from earlier work.
A further series has as its system P4 cells. Put plainly: Cytotoxicity (CC50), MTT assay on P4 cells. Format: cell-based. The conditions noted are these: 3 days. Background: Formazan colour is commonly taken as a measure of viable cells.

In the case of `Cc1ccnc2c1NC(=O)c1cccnc1N2C1CC1` [Nevirapine, reference compound], the EC50 in series [1] is 0.01 to 0.1 µM.

In the series on P4 cells, `CCOC(=O)c1c(OC2CC(C)CC(C)C2)c(CC)c(C)[nH]c1=O` (single isomer, unassigned) [Z37inv] yielded a half-maximal cytotoxic concentration (CC50) of 64 µM. On to `CCc1c(C)[nH]c(=O)c(N(C)C)c1OC1CC(C)CC(C)C1` (centres unmarked) [Z150, 3-(dimethylamino)-5-ethyl-6-methyl-4-[(3,5-dimethylcyclohexyl)oxy]pyridine-2(1H)-one], for which the melting point was 129 to 130 °C. `CCc1c(C)[nH]c(=O)c(CO)c1OC1CC(C)CC(C)C1` (centres unmarked) [Z45inv] came in with a 50% cytotoxic concentration (CC50) with P4 cells of 76 µM. Consider `CCc1c(C)[nH]c(=O)c([N+](=O)[O-])c1OC1CC(C)CC(C)C1` (centres unmarked) [Z91inv, 3-nitro-5-ethyl-6-methyl-4-[(3,5-dimethylcyclohexyl)oxy]pyridine-2(1H)-one], for which the melting point lay in the range of 206 to 207 °C. `CCc1c(C)[nH]c(=O)c(C)c1OC1CC(C)CC(C)C1` (centres unmarked) [Z154]: in the series on P4 cells, the half-maximal cytotoxic concentration (CC50) was determined as 80 µM. As to `CCc1c(C)[nH]c(=O)c(CSC(C)=O)c1OC1CC(C)CC(C)C1` (centres unmarked) [Z114], the cytotoxic concentration (CC50) in the series on P4 cells amounted to 8 µM. The compound `CCc1c(C)[nH]c(=O)c(CN=[N+]=[N-])c1OC1CC(C)CC(C)C1` (centres unmarked) [Z153] displayed a CC50 in the series on P4 cells of 54 µM.

As a reminder, the CC50 is the concentration giving 50% cytotoxicity. What is called melting point is the temperature, or range, at which the solid turns liquid.
